Results from patent US9452986B2, “6-heteroaryloxy- or 6-aryloxy-quinoline-2-carboxamides and method of use” (AbbVie Inc., priority 2014, dated 2016).
pIC50: −log10 of the molar value.

The molecules below were run against recombinant human Nav1.7 (Homo sapiens (Human), UniProt Q15858) (assay: FRET-based membrane potential assay, recombinant human sodium channel Nav1.7). Conditions: FRET-Membrane Potential Nav1.7 IC50.
Assay type: cell-based
Protocol: FRET-Based Membrane Potential Assays.
Recombinant, Human Sodium Channel, Nav1.7.
On the day of the assay, medium was removed by aspiration, and cells were washed with assay buffer [HBSS (Invitrogen, Carlsbad, Calif.) containing 20 mM HEPES (Invitrogen, Carlsbad, Calif.)]. […] Cells were incubated for 40 minutes at room temperature in the dark. […] The cells were incubated for 90 minutes at room temperature in the dark. Fluorescence readings were made using a FLIPR®^TETRA (Molecular Devices, Sunnyvale Calif.) equipped with voltage-sensor probe optics. At the start of each experiment the optimal (EC80) concentration of depolarizing agent (veratridine) was determined by testing a dilution curve of assay buffer containing veratridine (Sigma-Aldrich, St. Louis, Mo.) and 1 mg/mL scorpion venom (SVqq, from Leiurus quinquestriatus; Sigma-Aldrich, St. Louis, Mo.). […] Test compounds in the daughter plate were diluted to (˜3×) solutions in assay buffer immediately before assaying. Using the FLIPR®^TETRA, 20 μL of the (3×) compound solutions were first added to the cells, then 20 μL of depolarizing solution (3×EC80 veratridine+SVqq) were added 3 minutes later to activate the channel. […] IC50 values were calculated from curve fits of the ratio data using a four-parameter logistic Hill equation (Accelrys Assay Explorer 3.3 Client, Accelrys, San Diego, Calif.) with percent inhibition plotted against compound concentration.

Sequence of recombinant human Nav1.7 (Q15858 whole entry): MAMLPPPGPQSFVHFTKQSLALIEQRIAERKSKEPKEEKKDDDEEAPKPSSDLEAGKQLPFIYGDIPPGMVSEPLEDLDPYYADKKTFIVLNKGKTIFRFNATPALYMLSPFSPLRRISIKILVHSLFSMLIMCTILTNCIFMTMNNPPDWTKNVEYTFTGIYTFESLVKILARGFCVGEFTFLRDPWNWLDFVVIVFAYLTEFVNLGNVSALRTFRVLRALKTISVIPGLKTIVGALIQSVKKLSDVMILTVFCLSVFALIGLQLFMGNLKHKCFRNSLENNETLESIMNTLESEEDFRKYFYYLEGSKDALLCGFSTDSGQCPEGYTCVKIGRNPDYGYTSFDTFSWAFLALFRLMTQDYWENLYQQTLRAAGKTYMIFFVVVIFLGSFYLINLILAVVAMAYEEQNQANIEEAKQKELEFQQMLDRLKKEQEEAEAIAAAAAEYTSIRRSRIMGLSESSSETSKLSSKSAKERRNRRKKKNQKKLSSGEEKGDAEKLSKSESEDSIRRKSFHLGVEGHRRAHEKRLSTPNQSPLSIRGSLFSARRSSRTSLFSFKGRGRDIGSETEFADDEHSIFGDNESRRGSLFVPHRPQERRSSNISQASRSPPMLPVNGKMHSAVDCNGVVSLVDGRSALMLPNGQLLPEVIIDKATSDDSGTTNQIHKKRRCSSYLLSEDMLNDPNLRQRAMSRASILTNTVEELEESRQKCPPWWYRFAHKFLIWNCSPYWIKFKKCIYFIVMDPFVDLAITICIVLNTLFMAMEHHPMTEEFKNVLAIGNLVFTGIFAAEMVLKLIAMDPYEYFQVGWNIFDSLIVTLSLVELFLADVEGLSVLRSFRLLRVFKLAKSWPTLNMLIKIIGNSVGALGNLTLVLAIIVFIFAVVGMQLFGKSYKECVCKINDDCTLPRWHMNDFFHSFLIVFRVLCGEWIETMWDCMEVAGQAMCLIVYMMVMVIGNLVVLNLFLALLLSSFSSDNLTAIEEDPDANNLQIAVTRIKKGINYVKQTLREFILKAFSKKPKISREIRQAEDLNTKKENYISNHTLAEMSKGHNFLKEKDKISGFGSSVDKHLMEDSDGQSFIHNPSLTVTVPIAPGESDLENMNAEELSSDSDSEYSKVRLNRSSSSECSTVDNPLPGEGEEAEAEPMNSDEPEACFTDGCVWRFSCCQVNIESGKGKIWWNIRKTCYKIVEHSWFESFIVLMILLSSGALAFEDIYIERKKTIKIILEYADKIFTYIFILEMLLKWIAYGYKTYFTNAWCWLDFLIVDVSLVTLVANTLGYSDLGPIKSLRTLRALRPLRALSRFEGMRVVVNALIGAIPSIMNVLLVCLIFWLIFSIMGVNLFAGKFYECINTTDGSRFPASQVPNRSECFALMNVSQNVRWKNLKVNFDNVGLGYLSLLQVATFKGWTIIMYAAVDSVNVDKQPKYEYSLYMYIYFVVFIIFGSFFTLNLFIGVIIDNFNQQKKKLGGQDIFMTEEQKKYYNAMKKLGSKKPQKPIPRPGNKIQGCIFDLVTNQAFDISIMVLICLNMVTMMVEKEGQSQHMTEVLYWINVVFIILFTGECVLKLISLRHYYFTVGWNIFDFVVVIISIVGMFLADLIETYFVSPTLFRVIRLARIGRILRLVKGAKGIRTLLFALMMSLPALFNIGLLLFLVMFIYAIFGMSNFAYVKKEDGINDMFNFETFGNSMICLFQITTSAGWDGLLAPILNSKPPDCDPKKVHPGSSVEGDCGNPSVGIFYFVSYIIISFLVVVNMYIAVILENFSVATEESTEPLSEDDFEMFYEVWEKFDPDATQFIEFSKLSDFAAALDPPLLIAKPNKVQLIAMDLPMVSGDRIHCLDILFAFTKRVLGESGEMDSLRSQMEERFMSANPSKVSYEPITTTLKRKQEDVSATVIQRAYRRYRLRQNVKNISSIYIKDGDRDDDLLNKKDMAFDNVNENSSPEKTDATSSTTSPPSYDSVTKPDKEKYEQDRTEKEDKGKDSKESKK

| Molecule | pIC50 |
| --- | --- |
| O=C(c1ccc2cc(Oc3ccc(C(F)(F)F)cn3)ccc2n1)N1CC[C@H](O)[C@H](F)C1 (relative stereo) [Example 191, [cis-3-fluoro-4-hydroxypiperidin-1-yl](6-{[5-(trifluoromethyl)pyridin-2-yl]oxy}quinolin-2-yl)methanone] | < 4.70 |
| O=C(c1ccc2cc(Oc3ccc(C(F)(F)F)cn3)ccc2n1)N1CC[C@@H](O)[C@H](F)C1 (relative stereo) [Example 195, [trans-3-fluoro-4-hydroxypiperidin-1-yl](6-{[5-(trifluoromethyl)pyridin-2-yl]oxy}quinolin-2-yl)methanone] | 5.12 |

Same assay, conditions: HEK293 cells stably expressing recombinant human Nav1.7; veratridine + scorpion venom depolarization; read-out: FRET-Membrane Potential Nav1.7 IC50

| Molecule | pIC50 |
| --- | --- |
| 1,4-diazepan-1-yl(6-{[5-(trifluoromethyl)pyridin-2-yl]oxy}quinolin-2-yl)methanone [Example 219] | 5.59 |
| CC1[C@@H](O)[C@@H](O)C(C)N1C(=O)c1ccc2cc(Oc3ccc(C(F)(F)F)cn3)ccc2n1 (mixture of isomers) [Example 323, rac-[(3R,4S)-3,4-dihydroxy-2,5-dimethylpyrrolidin-1-yl](6-{[5-(trifluoromethyl)pyridin-2-yl]oxy}quinolin-2-yl)methanone] | < 4.70 |
| O=C(c1ccc2cc(Oc3ccc(C(F)(F)F)cn3)ccc2n1)N1CC[C@H](F)[C@H](O)C1 (relative stereo) [Example 192, [cis-4-fluoro-3-hydroxypiperidin-1-yl](6-{[5-(trifluoromethyl)pyridin-2-yl]oxy}quinolin-2-yl)methanone] | 4.75 |
| O=C(c1ccc2cc(Oc3ccc(C(F)(F)F)cn3)ccc2n1)N1CC[C@@H](F)[C@H](O)C1 (relative stereo) [Example 196, [trans-4-fluoro-3-hydroxypiperidin-1-yl](6-{[5-(trifluoromethyl)pyridin-2-yl]oxy}quinolin-2-yl)methanone] | 5.31 |
| O=C(c1ccc2cc(Oc3ccc(C(F)(F)F)cn3)ccc2n1)N1C[C@@H](O)[C@H](O)C1 (relative stereo) [Example 303, [trans-3,4-dihydroxypyrrolidin-1-yl](6-{[5-(trifluoromethyl)pyridin-2-yl]oxy}quinolin-2-yl)methanone] | 5.25 |
| CO[C@@H]1CN(C(=O)c2ccc3cc(Oc4ccc(C(F)(F)F)cn4)ccc3n2)C[C@H]1O (relative stereo) [Example 305, [trans-3-hydroxy-4-methoxypyrrolidin-1-yl](6-{[5-(trifluoromethyl)pyridin-2-yl]oxy}quinolin-2-yl)methanone] | 4.87 |
| C[C@@H]1CN(C(=O)c2ccc3cc(Oc4ccc(C(F)(F)F)cn4)ccc3n2)C[C@H]1O (relative stereo) [Example 306, [trans-3-hydroxy-4-methylpyrrolidin-1-yl](6-{[5-(trifluoromethyl)pyridin-2-yl]oxy}quinolin-2-yl)methanone] | 4.83 |
| O=C(c1ccc2cc(Oc3ccc(C(F)(F)F)cn3)ccc2n1)N1CC[C@H](O)[C@H](O)C1 (relative stereo) [Example 350, [cis-3,4-dihydroxypiperidin-1-yl](6-{[5-(trifluoromethyl)pyridin-2-yl]oxy}quinolin-2-yl)methanone] | < 4.70 |
| CS(=O)(=O)[C@@H]1CN(C(=O)c2ccc3cc(Oc4ccc(C(F)(F)F)cn4)ccc3n2)C[C@H]1O (relative stereo) [Example 351, [trans-3-hydroxy-4-(methylsulfonyl)pyrrolidin-1-yl](6-{[5-(trifluoromethyl)pyridin-2-yl]oxy}quinolin-2-yl)methanone] | 5.44 |
| COCO[C@H]1CN(C(=O)c2ccc3cc(Oc4ccc(C(F)(F)F)cn4)ccc3n2)C[C@H]1O (relative stereo) [Example 368, [cis-3-hydroxy-4-(methoxymethoxy)pyrrolidin-1-yl](6-{[5-(trifluoromethyl)pyridin-2-yl]oxy}quinolin-2-yl)methanone] | 5.90 |
| O=C(NCC(O)C(F)(F)F)c1ccc2cc(Oc3ccc(C(F)(F)F)cn3)ccc2n1 (stereo not shown) [Example 75, N-(3,3,3-trifluoro-2-hydroxypropyl)-6-{[5-(trifluoromethyl)pyridin-2-yl]oxy}quinoline-2-carboxamide] | 6.03 |
| O=C(c1ccc2cc(Oc3ccccn3)ccc2n1)N1CCOCC1 [Example 76, morpholin-4-yl[6-(pyridin-2-yloxy)quinolin-2-yl]methanone] | < 4.70 |
| CN1CCN(C(=O)c2ccc3cc(Oc4ccccn4)ccc3n2)CC1 [Example 77, (4-methylpiperazin-1-yl)[6-(pyridin-2-yloxy)quinolin-2-yl]methanone] | < 4.70 |
| CN1CCN(C(=O)c2ccc3cc(Oc4ccc(C#N)cc4)ccc3n2)CC1 [Example 81, 4-({2[(4-methylpiperazin-1-yl)carbonyl]quinolin-6-yl}oxy)benzonitrile] | 5.73 |
| N#Cc1ccc(Oc2ccc3nc(C(=O)N4CCOCC4)ccc3c2)cc1 [Example 83, 4-{[2-(morpholin-4-ylcarbonyl)quinolin-6-yl]oxy}benzonitrile] | < 4.70 |
| N#Cc1ccc(Oc2ccc3nc(C(=O)NCCCN4CCOCC4)ccc3c2)cc1 [Example 87, 6-(4-cyanophenoxy)-N-[3-(morpholin-4-yl)propyl]quinoline-2-carboxamide] | 5.91 |
| N#Cc1ccc(Oc2ccc3nc(C(=O)Nc4nccs4)ccc3c2)cc1 [Example 88, 6-(4-cyanophenoxy)-N-(1,3-thiazol-2-yl)quinoline-2-carboxamide] | < 4.70 |
| N#Cc1ccc(Oc2ccc3nc(C(=O)NCc4cccnc4)ccc3c2)cc1 [Example 89, 6-(4-cyanophenoxy)-N-(pyridin-3-ylmethyl)quinoline-2-carboxamide] | 5.82 |
| N#Cc1ccc(Oc2ccc3nc(C(=O)N[C@H]4CCOC4=O)ccc3c2)cc1 [Example 90, 6-(4-cyanophenoxy)-N-[(3S)-2-oxotetrahydrofuran-3-yl]quinoline-2-carboxamide] | 6.43 |

Same assay, conditions: read-out: FRET-Membrane Potential Nav1.7 IC50

| Molecule | pIC50 |
| --- | --- |
| Cc1noc(C2CCCN(C(=O)c3ccc4cc(Oc5ccccn5)ccc4n3)C2)n1 (stereo not shown) [Example 78, [3-(3-methyl-1,2,4-oxadiazol-5-yl)piperidin-1-yl][6-(pyridin-2-yloxy)quinolin-2-yl]methanone] | < 4.70 |
| O=C(NCCN1CCCCC1)c1ccc2cc(Oc3ccccn3)ccc2n1 [Example 79, N-[2-(piperidin-1-yl)ethyl]-6-(pyridin-2-yloxy)quinoline-2-carboxamide] | < 4.70 |
| O=C(Nc1ncns1)c1ccc2cc(Oc3ccccn3)ccc2n1 [Example 80, 6-(pyridin-2-yloxy)-N-(1,2,4-thiadiazol-5-yl)quinoline-2-carboxamide] | < 4.70 |
| N#Cc1ccc(Oc2ccc3nc(C(=O)NCCN4CCCCC4)ccc3c2)cc1 [Example 82, 6-(4-cyanophenoxy)-N-[2-(piperidin-1-yl)ethyl]quinoline-2-carboxamide] | 6.65 |
| N#Cc1ccc(Oc2ccc3nc(C(=O)Nc4ccc5cn[nH]c5c4)ccc3c2)cc1 [Example 84, 6-(4-cyanophenoxy)-N-(1H-indazol-6-yl)quinoline-2-carboxamide] | < 4.70 |
| CN(C)CCCNC(=O)c1ccc2cc(Oc3ccc(C#N)cc3)ccc2n1 [Example 85, 6-(4-cyanophenoxy)-N-[3-(dimethylamino)propyl]quinoline-2-carboxamide] | 6.62 |
| N#Cc1ccc(Oc2ccc3nc(C(=O)NCCN4CCOCC4)ccc3c2)cc1 [Example 86, 6-(4-cyanophenoxy)-N-[2-(morpholin-4-yl)ethyl]quinoline-2-carboxamide] | 5.76 |
